Values quoted from earlier work in patent US20010006686A1, “INFLAMMATORY MEDIATION OBTAINED FROM ATRACTYLODES LANCEA” (priority 1999, published 2001).

Target: T1, cyclooxygenase-1 (Ovis aries, UniProt P05979)
T1 sequence (P05979 25-600): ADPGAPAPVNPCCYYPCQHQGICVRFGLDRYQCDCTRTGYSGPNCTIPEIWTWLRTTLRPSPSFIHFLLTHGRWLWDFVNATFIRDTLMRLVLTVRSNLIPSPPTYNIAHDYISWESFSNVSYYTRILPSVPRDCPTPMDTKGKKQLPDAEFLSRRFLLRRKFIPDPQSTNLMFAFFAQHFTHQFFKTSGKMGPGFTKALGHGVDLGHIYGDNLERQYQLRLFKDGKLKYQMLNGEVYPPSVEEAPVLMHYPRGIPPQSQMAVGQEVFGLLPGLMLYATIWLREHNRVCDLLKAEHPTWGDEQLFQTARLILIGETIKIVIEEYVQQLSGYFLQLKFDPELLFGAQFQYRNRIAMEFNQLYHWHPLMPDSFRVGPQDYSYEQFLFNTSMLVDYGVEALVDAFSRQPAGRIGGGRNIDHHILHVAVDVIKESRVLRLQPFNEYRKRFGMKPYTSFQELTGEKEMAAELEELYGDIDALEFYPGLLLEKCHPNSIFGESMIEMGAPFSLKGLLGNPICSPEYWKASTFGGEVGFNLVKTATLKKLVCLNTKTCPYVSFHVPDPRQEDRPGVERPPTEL
Details: Resch, et al., J. Nat. Prod., 61, 347-350 (1998)

CC(C)=CCCC1(C)C=Cc2cc(O)cc(C)c2O1 (stereo not shown) [atractylochromene]
inhibitory effects on COX-1 activity (in words): significant COX-1 inhibitory effects
